Where two headings read alike, the source gives them in different places. Marks after values point to notes of the source that are not given here.
Legend:
Hep 3B cells = assay: MTT cell viability assay, Hep 3B cells (serum-free DMEM)
From the text: (§1) Human hepatoma cell lines Hep G2 and Hep 3 were chosen as the in vitro models of hepatocytes and hepatoma, respectively.

Hep 3B/T2 cells = assay: Tumor growth of Hep 3B/T2 cells in nude mice; assay type: in vivo, BALB/c-nu/nu nude mice
[1] = MTT cell viability assay, Hep G2 cells (serum-free DMEM); details: human, Hep G2 cells, Cell viability, LOV 1 μM
From the text: as §1

[2] = LOV 10 μM 48 hr, then LOV 10 μM without MVA another 24 hr
[3] = LOV 10 μM 48 hr, then LOV 10 μM without MVA another 48 hr
[4] = LOV 10 μM 48 hr, then LOV 10 μM without MVA another 72 hr

Q: Which IC50 (Hep 3B cells; Homo sapiens, Hep3B, 48 h, read-out: IC50 (cell viability), 48 hr, Table 3) does the source give for `CC[C@H](C)C(=O)O[C@H]1C[C@@H](C)C=C2C=C[C@H](C)[C@H](CC[C@@H]3C[C@@H](O)CC(=O)O3)[C@H]21` [Lovastatin, lovastatin] here?
A: Its IC50 is 62.3 ± 7.1 µM.

Q: What about the IC50 (Hep 3B cells; Homo sapiens, Hep3B, 48 h, read-out: IC50 (cell viability), 48 hr, Table 4) of the same compound?
A: Its IC50 is 63.6 µM.

Q: And the IC50 (Hep 3B cells; Homo sapiens, Hep3B, 48 h, read-out: IC50 of lovastatin (cell viability), 48 hr treatment)?
A: The IC50 was 63.6 ± 7.1 µM.

Q: What about the viability at 1 µM (Hep 3B cells; Homo sapiens, Hep3B, 72 h, read-out: Cell viability, lovastatin 1 μM, 72 hr) of the same compound?
A: Its viability at 1 µM is 84.1 ± 4.5%.

Q: What about the viability at 2 µM (Hep 3B cells; Homo sapiens, Hep3B, 72 h, read-out: Cell viability, lovastatin 2 μM, 72 hr) of the same compound?
A: Its viability at 2 µM is 71.4 ± 3.8%.

Q: What about the viability at 5 µM (Hep 3B cells; Homo sapiens, Hep3B, 72 h, read-out: Cell viability, lovastatin 5 μM alone, 72 hr, Table 23) of the same compound?
A: Its viability at 5 µM is 60.7 ± 2.4%.

Q: What about the viability at 5 µM (Hep 3B cells; Homo sapiens, Hep3B, 72 h, read-out: Cell viability, lovastatin 5 μM, 72 hr) of the same compound?
A: The viability at 5 µM was 58.8 ± 1.8%.

Q: And the viability at 10 µM (Hep 3B cells; Homo sapiens, Hep3B, 72 h, read-out: Cell viability, lovastatin 10 μM alone, 72 hr, Table 23)?
A: The viability at 10 µM was 48.5 ± 2.5%.

Q: What about the viability at 10 µM (Hep 3B cells; Homo sapiens, Hep3B, 72 h, read-out: Cell viability, lovastatin 10 μM, 72 hr) of the same compound?
A: Its viability at 10 µM is 41.4 ± 1.5%.

Q: And the viability at 50 µM (Hep 3B cells; Homo sapiens, Hep3B, 72 h, read-out: Cell viability, lovastatin 50 μM, 72 hr)?
A: The viability at 50 µM was 15.2 ± 1.8%.

Q: And the IC50 (Hep 3B cells; Homo sapiens, Hep3B, 72 h, read-out: IC50 (cell viability), 72 hr, Table 3)?
A: Its IC50 is 6.8 ± 1.3 µM.

Q: And the IC50 (Hep 3B cells; Homo sapiens, Hep3B, 72 h, read-out: IC50 (cell viability), 72 hr, Table 4)?
A: The IC50 was 6.8 µM.

Q: What about the IC50 (Hep 3B cells; Homo sapiens, Hep3B, 72 h, read-out: IC50 of lovastatin (cell viability), 72 hr treatment) of the same compound?
A: The IC50 was 6.8 ± 1.3 µM.

Q: And the viability at 10 µM (Hep 3B cells; Homo sapiens, Hep3B, 96 h, read-out: Cell viability, lovastatin 10 μM alone, 96 hr, Table 10)?
A: Its viability at 10 µM is 29.8 ± 1.2%.

Q: What about the viability at 10 µM (Hep 3B cells; Homo sapiens, Hep3B, 96 h, read-out: Cell viability, lovastatin 10 μM alone, 96 hr, Table 21) of the same compound?
A: The viability at 10 µM was 27.5 ± 8.2%.

Q: And the viability at 10 µM (Hep 3B cells; Homo sapiens, Hep3B, 96 h, read-out: Cell viability, lovastatin 10 μM alone, 96 hr, Table 25)?
A: Its viability at 10 µM is 28.6 ± 1.7%.

Q: And the IC50 (Hep 3B cells; Homo sapiens, Hep3B, 96 h, read-out: IC50 (cell viability), 96 hr)?
A: The IC50 was 5.9 µM.

Q: And the IC50 (Hep 3B cells; Homo sapiens, Hep3B, 120 h, read-out: IC50 (cell viability), 120 hr)?
A: Its IC50 is 1.3 µM.

Q: What about the Cell viability (Hep 3B cells; LOV 1 μM, 48 hr) of the same compound?
A: Its Cell viability is 90.2 ± 0.3^b % of control.

Q: And the Cell viability (Hep 3B cells; LOV 2 μM, 48 hr)?
A: The Cell viability was 86.1 ± 2.0^bc % of control.

Q: And the Cell viability (Hep 3B cells; LOV 5 μM, 48 hr)?
A: Its Cell viability is 78.6 ± 4.7^cd % of control.

Q: And the Cell viability (Hep 3B cells; LOV 5 μM, 48 hr, Table 4)?
A: Its Cell viability is 78.6 ± 4.7^b % of control.

Q: What about the Cell viability (Hep 3B cells; LOV 5 μM, 96 hr) of the same compound?
A: Its Cell viability is 56.4 ± 5.1^c % of control.

Q: And the Cell viability (Hep 3B cells; LOV 5 μM, 120 hr)?
A: The Cell viability was 20.3 ± 3.6^d % of control.

Q: And the Cell viability (Hep 3B cells; [2])?
A: The Cell viability was 52.6 ± 2.6^b % of control.

Q: And the “Cell viability (cell number)” value (Hep 3B cells; [2])?
A: The value was 5.3 ± 0.1^b 1 × 10^3 cells.

Q: What about the Cell viability (Hep 3B cells; [3]) of the same compound?
A: Its Cell viability is 7.3 ± 0.5^b % of control.

Q: What about the “Cell viability (cell number)” value (Hep 3B cells; [3]) of the same compound?
A: The value was 1.0 ± 0.1^b 1 × 10^3 cells.

Q: What about the Cell viability (Hep 3B cells; [4]) of the same compound?
A: The Cell viability was 3.2 ± 1.8^b % of control.

Q: What about the “Cell viability (cell number)” value (Hep 3B cells; [4]) of the same compound?
A: Its value is 0.6 ± 0.5^b 1 × 10^3 cells.

Q: And the Cell viability (Hep 3B cells; LOV 10 μM, 48 hr)?
A: The Cell viability was 66.4 ± 0.8^de % of control.

Q: What about the Cell viability (Hep 3B cells; LOV 10 μM, 48 hr, Table 4) of the same compound?
A: The Cell viability was 66.4 ± 0.8^b % of control.

Q: What about the Cell viability (Hep 3B cells; LOV 10 μM, 96 hr) of the same compound?
A: Its Cell viability is 31.7 ± 2.7^d % of control.

Q: What about the Cell viability (Hep 3B cells; LOV 10 μM, 120 hr) of the same compound?
A: The Cell viability was 6.9 ± 1.3^e % of control.

Q: And the Cell viability (Hep 3B cells; LOV 20 μM, 48 hr)?
A: The Cell viability was 55.7 ± 6.6^ef % of control.

Q: What about the Cell viability (Hep 3B cells; LOV 50 μM, 48 hr) of the same compound?
A: Its Cell viability is 52.2 ± 1.9^f % of control.

Q: What about the Cell viability (Hep 3B cells; lovastatin 5 μM 48 hr, then no CAPE 48 hr) of the same compound?
A: Its Cell viability is 64.3 ± 5.5 % of control.

Q: And the Cell viability (Hep 3B cells; lovastatin 5 μM 48 hr, then no taxol 48 hr)?
A: Its Cell viability is 49.8 ± 7.8 % of control.

Q: And the Cell viability (Hep 3B cells; lovastatin 5 μM 72 hr, then no taxol 48 hr)?
A: Its Cell viability is 27.7 ± 2.0 % of control.

Q: What about the Cell viability (Hep 3B cells; lovastatin 5 μM 72 hr, then no taxol 72 hr) of the same compound?
A: The Cell viability was 13.0 ± 3.0 % of control.

Q: What about the Cell viability (Hep 3B cells; lovastatin 10 μM 48 hr, then no CAO 48 hr) of the same compound?
A: The Cell viability was 47.9 ± 6.1^de % of control.

Q: And the Cell viability (Hep 3B cells; lovastatin 10 μM 48 hr, then no CAPE 48 hr)?
A: The Cell viability was 59.3 ± 4.5^d % of control.

Q: And the Cell viability (Hep 3B cells; lovastatin 10 μM 48 hr, then no GL-M1 48 hr)?
A: The Cell viability was 53.6 ± 8.2^c % of control.

Q: And the Cell viability (Hep 3B cells; lovastatin 10 μM 48 hr, then no taxol 48 hr)?
A: The Cell viability was 45.7 ± 3.1^d % of control.

Q: And the Cell viability (Hep 3B cells; lovastatin 10 μM 72 hr, then no taxol 48 hr)?
A: Its Cell viability is 20.4 ± 7.0^c % of control.

Q: What about the Cell viability (Hep 3B cells; lovastatin 10 μM 72 hr, then no taxol 72 hr) of the same compound?
A: Its Cell viability is 14.7 ± 3.6^d % of control.

Q: And the Cell viability (Hep 3B cells; lovastatin 50 μM 48 hr, then no taxol 48 hr)?
A: Its Cell viability is 2.9 ± 4.1 % of control.

Q: What about the “percentage of inhibition of tumor size” value (Hep 3B/T2 cells; Cycle 1 (Day 42), LOV 37.5 mg/kg/day p.o. days 28-34 and 49-55 and/or taxol 120 μg/kg/2 day i.p. day 36, 38, 40, 57, 59, 61) of the same compound?
A: Its value is “(−43.6%”.

Q: What about the Tumor size (Hep 3B/T2 cells; Day 8, LOV 75 mg/kg/day p.o. days 8-14 and/or taxol 120 μg/kg/day i.p. days 15-19, n = 3) of the same compound?
A: Its Tumor size is 0.111 cm^3.

Q: And the Tumor size (Hep 3B/T2 cells; Day 11, LOV 75 mg/kg/day p.o. days 8-14 and/or taxol 120 μg/kg/day i.p. days 15-19, n = 3)?
A: Its Tumor size is 0.048 cm^3.

Q: And the Tumor size (Hep 3B/T2 cells; Day 17, LOV 75 mg/kg/day p.o. days 8-14 and/or taxol 120 μg/kg/day i.p. days 15-19, n = 3)?
A: The Tumor size was 0.050 cm^3.

Q: And the Tumor size (Hep 3B/T2 cells; Day 26, LOV 75 mg/kg/day p.o. days 8-14 and/or taxol 120 μg/kg/day i.p. days 15-19, n = 3)?
A: The Tumor size was 0.121 cm^3.

Q: And the Tumor size (Hep 3B/T2 cells; Day 29, LOV 75 mg/kg/day p.o. days 8-14 and/or taxol 120 μg/kg/day i.p. days 15-19, n = 3)?
A: Its Tumor size is 0.154 cm^3.

Q: What about the “Tumor size (1 × w^2 × 0.52 cm^3) Day 35” value (Hep 3B/T2 cells; Day 35 after inoculation, p.o. lovastatin 37.5 mg/kg/day (days 28-34, 49-55) and/or i.p. taxol 120 μg/kg/2 day (days 36, 38, 40, 57, 59, 61), mean ± SEM) of the same compound?
A: Its value is 0.200 cm^3.

Q: And the “Tumor size (1 × w^2 × 0.52 cm^3) Day 38” value (Hep 3B/T2 cells; Day 38 after inoculation, p.o. lovastatin 37.5 mg/kg/day (days 28-34, 49-55) and/or i.p. taxol 120 μg/kg/2 day (days 36, 38, 40, 57, 59, 61), mean ± SEM)?
A: The value was 0.301 cm^3.

Q: And the “Tumor size (1 × w^2 × 0.52 cm^3) Day 42” value (Hep 3B/T2 cells; Day 42 after inoculation, p.o. lovastatin 37.5 mg/kg/day (days 28-34, 49-55) and/or i.p. taxol 120 μg/kg/2 day (days 36, 38, 40, 57, 59, 61), mean ± SEM)?
A: The value was 0.533 cm^3.

Q: And the “Tumor size (1 × w^2 × 0.52 cm^3) Day 49” value (Hep 3B/T2 cells; Day 49 after inoculation, p.o. lovastatin 37.5 mg/kg/day (days 28-34, 49-55) and/or i.p. taxol 120 μg/kg/2 day (days 36, 38, 40, 57, 59, 61), mean ± SEM)?
A: Its value is 0.665 cm^3.

Q: What about the “Tumor size (1 × w^2 × 0.52 cm^3) Day 56” value (Hep 3B/T2 cells; Day 56 after inoculation, p.o. lovastatin 37.5 mg/kg/day (days 28-34, 49-55) and/or i.p. taxol 120 μg/kg/2 day (days 36, 38, 40, 57, 59, 61), mean ± SEM) of the same compound?
A: The value was 0.995 cm^3.

Q: And the “Tumor size (1 × w^2 × 0.52 cm^3) Day 63” value (Hep 3B/T2 cells; Day 63 after inoculation, p.o. lovastatin 37.5 mg/kg/day (days 28-34, 49-55) and/or i.p. taxol 120 μg/kg/2 day (days 36, 38, 40, 57, 59, 61), mean ± SEM)?
A: The value was 1.263 cm^3.

Q: What about the Tumor size (Hep 3B/T2 cells; end of one cycle of treatment, n=6 (FIG. 41)) of the same compound?
A: The Tumor size was 2.24±2.38 cm^3.

Q: What about the viability at 48 h, 1 μM ([1]; 48 hr) of the same compound?
A: Its viability at 48 h, 1 μM is 91.8 ± 2.1%.

Q: What about the viability at 72 h, 1 μM ([1]; 72 hr) of the same compound?
A: The viability at 72 h, 1 μM was 88.7 ± 1.3%.

From patent publication US20020173538A1, “Method for sensitizing cancer cells to cancer therapies with a mevalonate-reducing compound” (priority 2000, published 2002)
